Reference: PubChem BioAssay AID2060341 (Molecular Pharmacology Branch, DTP, NCI, 2025)
Where “and” joins values, the source holds several entries; their conditions need not be identical. Equal values may be shown once. Values belong to the compound of their own block, whether it stands above or below them.

System: 327498-153-R-J2-PDC multicell spheroid viability
Test: Anticancer human tumor 327498-153-R-J2-PDC patient-derived uterine carcinosarcoma cell line growth inhibition [IpAb]
Settings: for viability, T/C: stronger effect = lower value
Method in brief: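 Spheroids of 60% malignant cells, 25% HUVEC and 15% MSC were exposed to targeted agents combined with ipatasertib or abemaciclib. Doses started at or near clinical Cmax (10 microM when unknown) and fell in half-log steps.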

[1] = curve of first compound, second compound 0.1 µM
[2] = curve of first compound, second compound 0.316 µM
[3] = curve of first compound, second compound 1 µM
[4] = curve of first compound, second compound 3.16 µM
[5] = curve of first compound, second compound 10 µM
[6] = second compound 0.1 µM, first compound 0.0316 µM
[7] = second compound 0.1 µM, first compound 0.1 µM
[8] = second compound 0.1 µM, first compound 0.316 µM
[9] = second compound 0.1 µM, first compound 1 µM
[10] = second compound 0.1 µM, first compound 3.16 µM
[11] = second compound 0.1 µM, first compound 10 µM
[12] = second compound 0.316 µM, first compound 0.0316 µM
[13] = second compound 0.316 µM, first compound 0.1 µM
[14] = second compound 0.316 µM, first compound 0.316 µM
[15] = second compound 0.316 µM, first compound 1 µM
[16] = second compound 0.316 µM, first compound 3.16 µM
[17] = second compound 0.316 µM, first compound 10 µM
[18] = second compound 1 µM, first compound 0.0316 µM
[19] = second compound 1 µM, first compound 0.1 µM
[20] = second compound 1 µM, first compound 0.316 µM
[21] = second compound 1 µM, first compound 1 µM
[22] = second compound 1 µM, first compound 3.16 µM
[23] = second compound 1 µM, first compound 10 µM
[24] = second compound 3.16 µM, first compound 0.0316 µM
[25] = second compound 3.16 µM, first compound 0.1 µM
[26] = second compound 3.16 µM, first compound 0.316 µM
[27] = second compound 3.16 µM, first compound 1 µM
[28] = second compound 3.16 µM, first compound 3.16 µM
[29] = second compound 3.16 µM, first compound 10 µM
[30] = second compound 10 µM, first compound 0.0316 µM
[31] = second compound 10 µM, first compound 0.1 µM
[32] = second compound 10 µM, first compound 0.316 µM
[33] = second compound 10 µM, first compound 1 µM
[34] = second compound 10 µM, first compound 3.16 µM
[35] = second compound 10 µM, first compound 10 µM
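Wherever viability, T/C is given: 100% = DMSO vehicle control viability.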

SMILES: Cn1ncc(Cl)c1-c1cc(C(=O)NC(CN)Cc2cccc(F)c2)sc1Cl (configuration not stated) + CC(C)NCC(C(=O)N1CCN(c2ncnc3c2C(C)CC3O)CC1)c1ccc(Cl)cc1
IC50 [1]: 1310 nM | IC50 [2]: 1640 nM | IC50 [3]: 1250 nM | IC50 [4]: 920 nM | IC50 [5]: < 31.6 nM | viability, T/C [6]: 98.5% | viability, T/C [7]: 86.4% | viability, T/C [8]: 70% | viability, T/C [9]: 53.9% | viability, T/C [10]: 38.1% | viability, T/C [11]: 0.27% | viability, T/C [12]: 77.7% | viability, T/C [13]: 77.5% | viability, T/C [14]: 63.2% | viability, T/C [15]: 60.1% | viability, T/C [16]: 40% | viability, T/C [17]: 0.3% | viability, T/C [18]: 63.4% | viability, T/C [19]: 55.8% | viability, T/C [20]: 55.3% | viability, T/C [21]: 52.9% | viability, T/C [22]: 39.8% | viability, T/C [23]: 0.31% | viability, T/C [24]: 50.5% | viability, T/C [25]: 56.8% | viability, T/C [26]: 50% | viability, T/C [27]: 49.5% | viability, T/C [28]: 39.2% | viability, T/C [29]: 0.3% | viability, T/C [30]: 35.5% | viability, T/C [31]: 45.2% | viability, T/C [32]: 41.7% | viability, T/C [33]: 35.8% | viability, T/C [34]: 35.6% | viability, T/C [35]: 0.42%

IC50 (compound alone, run of 05/18/2021): 2.46 µM [middle of 13 runs]
SMILES: CC(C)NCC(C(=O)N1CCN(c2ncnc3c2C(C)CC3O)CC1)c1ccc(Cl)cc1 (configuration not stated)
viability, T/C (compound 0.1 µM): 98.4% [middle of 13 runs] | viability, T/C (compound 0.316 µM): 80.2% [middle of 13 runs] | viability, T/C (compound 1 µM): 59.7% [middle of 13 runs] | viability, T/C (compound 3.16 µM): 48.1% [middle of 13 runs] | viability, T/C (compound 10 µM): 34.2% [middle of 13 runs]

SMILES: CCCS(=O)(=O)Nc1ccc(F)c(C(=O)c2c[nH]c3ncc(-c4ccc(Cl)cc4)cc23)c1F + CC(C)NCC(C(=O)N1CCN(c2ncnc3c2C(C)CC3O)CC1)c1ccc(Cl)cc1
IC50 [1]: > 10000 nM | IC50 [2]: > 10000 nM | IC50 [3]: > 10000 nM | IC50 [4]: 2360 nM | IC50 [5]: < 31.6 nM | viability, T/C [6]: 94.3% | viability, T/C [7]: 101% | viability, T/C [8]: 96.7% | viability, T/C [9]: 101% | viability, T/C [10]: 101% | viability, T/C [11]: 86.7% | viability, T/C [12]: 72.2% | viability, T/C [13]: 74% | viability, T/C [14]: 80.6% | viability, T/C [15]: 81.1% | viability, T/C [16]: 85.3% | viability, T/C [17]: 63% | viability, T/C [18]: 57.5% | viability, T/C [19]: 58.2% | viability, T/C [20]: 62.9% | viability, T/C [21]: 76.3% | viability, T/C [22]: 74.1% | viability, T/C [23]: 49% | viability, T/C [24]: 49.6% | viability, T/C [25]: 50.3% | viability, T/C [26]: 52% | viability, T/C [27]: 56% | viability, T/C [28]: 54.4% | viability, T/C [29]: 42.1% | viability, T/C [30]: 40.1% | viability, T/C [31]: 41.8% | viability, T/C [32]: 44.2% | viability, T/C [33]: 40.7% | viability, T/C [34]: 41.2% | viability, T/C [35]: 23.4%

IC50 (curve of compound): > 10000 nM
SMILES: C=CC(=O)N1CCN(c2nc(=O)n(-c3c(C)ccnc3C(C)C)c3nc(-c4c(O)cccc4F)c(F)cc23)C(C)C1 (configuration not stated)
viability, T/C (compound 0.0316 µM): 73.5% and 77.4% | viability, T/C (compound 0.1 µM): 69.2% and 69.6% | viability, T/C (compound 0.316 µM): 58.3% and 67.6% | viability, T/C (compound 1 µM): 65.6% and 63.7% | viability, T/C (compound 3.16 µM): 67.2% and 65% | viability, T/C (compound 10 µM): 55.8% and 59.9%

IC50 (curve of compound): > 10000 nM
SMILES: Cc1nc(NC(=O)N2CCCC2C(N)=O)sc1-c1ccnc(C(C)(C)C(F)(F)F)c1 (configuration not stated)
viability, T/C (compound 0.0316 µM): 97.9% and 110% | viability, T/C (compound 0.1 µM): 95.7% and 102% | viability, T/C (compound 0.316 µM): 90% and 98.9% | viability, T/C (compound 1 µM): 77% and 89.3% | viability, T/C (compound 3.16 µM): 76.2% and 80.2% | viability, T/C (compound 10 µM): 63% and 60.7%

IC50 (curve of compound): 86.5 nM and 86.4 nM
SMILES: COc1c(OCCCN2CCOCC2)ccc2c3n(c(=NC(=O)c4cnc(N)nc4)nc12)CCN3
viability, T/C (compound 0.00316 µM): 98.8% and 95% | viability, T/C (compound 0.01 µM): 87.7% and 86% | viability, T/C (compound 0.0316 µM): 70.7% and 76.3% | viability, T/C (compound 0.1 µM): 46.7% and 45.2% | viability, T/C (compound 0.316 µM): 25.3% and 23.2% | viability, T/C (compound 1 µM): 9.52% and 11.8%

SMILES: Cn1cnc2c(F)c(Nc3ccc(Br)cc3Cl)c(C(=O)NOCCO)cc21 + CC(C)NCC(C(=O)N1CCN(c2ncnc3c2C(C)CC3O)CC1)c1ccc(Cl)cc1
IC50 [1]: 427 nM | IC50 [2]: 61.2 nM | IC50 [3]: < 9.49 nM | IC50 [4]: < 9.49 nM | IC50 [5]: < 9.49 nM | viability, T/C (second compound 0.1 µM, first compound 0.00949 µM): 91.7% | viability, T/C (second compound 0.1 µM, first compound 0.03 µM): 69.9% | viability, T/C (second compound 0.1 µM, first compound 0.0949 µM): 66.2% | viability, T/C (second compound 0.1 µM, first compound 0.3 µM): 51.7% | viability, T/C (second compound 0.1 µM, first compound 0.949 µM): 46.1% | viability, T/C (second compound 0.1 µM, first compound 3 µM): 34.1% | viability, T/C (second compound 0.316 µM, first compound 0.00949 µM): 60.2% | viability, T/C (second compound 0.316 µM, first compound 0.03 µM): 51.6% | viability, T/C (second compound 0.316 µM, first compound 0.0949 µM): 48% | viability, T/C (second compound 0.316 µM, first compound 0.3 µM): 41.9% | viability, T/C (second compound 0.316 µM, first compound 0.949 µM): 29.7% | viability, T/C (second compound 0.316 µM, first compound 3 µM): 20.6% | viability, T/C (second compound 1 µM, first compound 0.00949 µM): 41.9% | viability, T/C (second compound 1 µM, first compound 0.03 µM): 34.6% | viability, T/C (second compound 1 µM, first compound 0.0949 µM): 32.9% | viability, T/C (second compound 1 µM, first compound 0.3 µM): 28.9% | viability, T/C (second compound 1 µM, first compound 0.949 µM): 20.4% | viability, T/C (second compound 1 µM, first compound 3 µM): 11.5% | viability, T/C (second compound 3.16 µM, first compound 0.00949 µM): 33.8% | viability, T/C (second compound 3.16 µM, first compound 0.03 µM): 27.2% | viability, T/C (second compound 3.16 µM, first compound 0.0949 µM): 21% | viability, T/C (second compound 3.16 µM, first compound 0.3 µM): 21% | viability, T/C (second compound 3.16 µM, first compound 0.949 µM): 13.3% | viability, T/C (second compound 3.16 µM, first compound 3 µM): 7.22% | viability, T/C (second compound 10 µM, first compound 0.00949 µM): 27.1% | viability, T/C (second compound 10 µM, first compound 0.03 µM): 22.4% | viability, T/C (second compound 10 µM, first compound 0.0949 µM): 16.3% | viability, T/C (second compound 10 µM, first compound 0.3 µM): 15.7% | viability, T/C (second compound 10 µM, first compound 0.949 µM): 12.2% | viability, T/C (second compound 10 µM, first compound 3 µM): 6.89%

SMILES: Cc1nc(NC(=O)N2CCCC2C(N)=O)sc1-c1ccnc(C(C)(C)C(F)(F)F)c1 (configuration not stated) + CC(C)NCC(C(=O)N1CCN(c2ncnc3c2C(C)CC3O)CC1)c1ccc(Cl)cc1
IC50 [1]: 9910 nM | IC50 [2]: 4450 nM | IC50 [3]: 1230 nM | IC50 [4]: 49.9 nM | IC50 [5]: < 31.6 nM | viability, T/C [6]: 91.1% | viability, T/C [7]: 93.2% | viability, T/C [8]: 83.3% | viability, T/C [9]: 72.7% | viability, T/C [10]: 63.8% | viability, T/C [11]: 49.4% | viability, T/C [12]: 72% | viability, T/C [13]: 70.5% | viability, T/C [14]: 67.8% | viability, T/C [15]: 59.2% | viability, T/C [16]: 57.8% | viability, T/C [17]: 38.5% | viability, T/C [18]: 56.4% | viability, T/C [19]: 57.7% | viability, T/C [20]: 59.2% | viability, T/C [21]: 49.8% | viability, T/C [22]: 42.5% | viability, T/C [23]: 30.5% | viability, T/C [24]: 54.3% | viability, T/C [25]: 44.9% | viability, T/C [26]: 36.2% | viability, T/C [27]: 34.6% | viability, T/C [28]: 33.7% | viability, T/C [29]: 21.3% | viability, T/C [30]: 38.7% | viability, T/C [31]: 31.7% | viability, T/C [32]: 26.6% | viability, T/C [33]: 23.5% | viability, T/C [34]: 25.5% | viability, T/C [35]: 17.2%
